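Exposure lasted 48 hours, with cells grown in 96-well plates and compounds tested at five concentrations. Abbreviation: GI50, concentration required for 50% inhibition of growth. Definition used: TGI = concentration required for complete inhibition of growth.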
Assays:
Assay in all cases: NCI anticancer screen, dose series, 48 h
HS 578T breast = test system: HS 578T breast
786-0 renal = test system: 786-0 renal
T-47D breast = test system: T-47D breast
NCI-H460 lung = test system: NCI-H460 lung
MDA-MB-435 = test system: MDA-MB-435
M14 melanoma = test system: M14 melanoma
EKVX NSCLC = test system: EKVX NSCLC
ACHN renal = test system: ACHN renal
RXF 393 renal = test system: RXF 393 renal
HL-60(TB) leukemia = test system: HL-60(TB) leukemia
BT-549 breast = test system: BT-549 breast
SF-539 CNS = test system: SF-539 CNS
OVCAR-5 ovarian = test system: OVCAR-5 ovarian
TK-10 renal = test system: TK-10 renal
NCI-H522 lung = test system: NCI-H522 lung
HT29 colon = test system: HT29 colon
PC-3 prostate = test system: PC-3 prostate
DU-145 prostate = test system: DU-145 prostate
A498 renal = test system: A498 renal
HCC-2998 colon = test system: HCC-2998 colon
SNB-19 CNS = test system: SNB-19 CNS
UACC-257 melanoma = test system: UACC-257 melanoma
NCI-H226 lung = test system: NCI-H226 lung
SK-MEL-5 melanoma = test system: SK-MEL-5 melanoma
CAKI-1 renal = test system: CAKI-1 renal
UO-31 renal = test system: UO-31 renal
MCF7 breast = test system: MCF7 breast
SF-295 CNS = test system: SF-295 CNS
CCRF-CEM leukemia = test system: CCRF-CEM leukemia
LOX IMVI melanoma = test system: LOX IMVI melanoma
MOLT-4 leukemia = test system: MOLT-4 leukemia
MALME-3M melanoma = test system: MALME-3M melanoma
RPMI-8226 leukemia = test system: RPMI-8226 leukemia
HOP-62 NSCLC = test system: HOP-62 NSCLC
OVCAR-3 ovarian = test system: OVCAR-3 ovarian
OVCAR-4 ovarian = test system: OVCAR-4 ovarian
SF-268 CNS = test system: SF-268 CNS
SK-MEL-2 melanoma = test system: SK-MEL-2 melanoma
SK-MEL-28 melanoma = test system: SK-MEL-28 melanoma
HOP-92 NSCLC = test system: HOP-92 NSCLC
SN12C renal = test system: SN12C renal
SK-OV-3 ovarian = test system: SK-OV-3 ovarian
KM12 colon = test system: KM12 colon
NCI-H23 lung = test system: NCI-H23 lung
OVCAR-8 ovarian = test system: OVCAR-8 ovarian
HCT-15 colon = test system: HCT-15 colon
HCT-116 colon = test system: HCT-116 colon
COLO 205 colon = test system: COLO 205 colon
NCI/ADR-RES ovarian = test system: NCI/ADR-RES ovarian
IGROV1 ovarian = test system: IGROV1 ovarian
A549 NSCLC = test system: A549 NSCLC
U251 CNS = test system: U251 CNS
K-562 leukemia = test system: K-562 leukemia
SNB-75 CNS = test system: SNB-75 CNS
MDA-MB-231 breast = test system: MDA-MB-231 breast
UACC-62 melanoma = test system: UACC-62 melanoma
SW-620 colon = test system: SW-620 colon
SR leukemia = test system: SR leukemia

`OCC1SC(n2cnc3cncnc32)C(O)C1O` (stereo unspecified) was tested, and the GI50 (HS 578T breast) was > 100 µM, the TGI (HS 578T breast) was > 100 µM and the GI50 (786-0 renal) was > 100 µM. For the same molecule, the TGI (786-0 renal) was > 100 µM, the GI50 (T-47D breast) was > 100 µM and the TGI (T-47D breast) was > 100 µM. For the same molecule, the GI50 (NCI-H460 lung) was > 100 µM, the TGI (NCI-H460 lung) was > 100 µM and the GI50 (MDA-MB-435) was > 100 µM. For the same molecule, the TGI (MDA-MB-435) was > 100 µM, the GI50 (M14 melanoma) was > 100 µM and the TGI (M14 melanoma) was > 100 µM. The GI50 (EKVX NSCLC) was > 100 µM, the TGI (EKVX NSCLC) was > 100 µM and the GI50 (ACHN renal) was > 100 µM. For the same molecule, the TGI (ACHN renal) was > 100 µM, the GI50 (RXF 393 renal) was > 100 µM and the TGI (RXF 393 renal) was > 100 µM. For the same molecule, the GI50 (HL-60(TB) leukemia) was > 100 µM, the TGI (HL-60(TB) leukemia) was > 100 µM and the GI50 (BT-549 breast) was > 100 µM. For the same molecule, the TGI (BT-549 breast) was > 100 µM, the GI50 (SF-539 CNS) was > 100 µM and the TGI (SF-539 CNS) was > 100 µM. For the same molecule, the GI50 (OVCAR-5 ovarian) was > 100 µM, the TGI (OVCAR-5 ovarian) was > 100 µM and the GI50 (TK-10 renal) was > 100 µM. For the same molecule, the TGI (TK-10 renal) was > 100 µM, the GI50 (NCI-H522 lung) was > 100 µM and the TGI (NCI-H522 lung) was > 100 µM. For the same molecule, the GI50 (HT29 colon) was > 100 µM, the TGI (HT29 colon) was > 100 µM and the GI50 (PC-3 prostate) was > 100 µM. For the same molecule, the TGI (PC-3 prostate) was > 100 µM, the GI50 (DU-145 prostate) was > 100 µM and the TGI (DU-145 prostate) was > 100 µM. For the same molecule, the GI50 (A498 renal) was > 100 µM, the TGI (A498 renal) was > 100 µM and the GI50 (HCC-2998 colon) was > 100 µM. For the same molecule, the TGI (HCC-2998 colon) was > 100 µM, the GI50 (SNB-19 CNS) was > 100 µM and the TGI (SNB-19 CNS) was > 100 µM. For the same molecule, the GI50 (UACC-257 melanoma) was > 100 µM, the TGI (UACC-257 melanoma) was > 100 µM and the GI50 (NCI-H226 lung) was > 100 µM. For the same molecule, the TGI (NCI-H226 lung) was > 100 µM, the GI50 (SK-MEL-5 melanoma) was > 100 µM and the TGI (SK-MEL-5 melanoma) was > 100 µM. For the same molecule, the GI50 (CAKI-1 renal) was > 100 µM, the TGI (CAKI-1 renal) was > 100 µM and the GI50 (UO-31 renal) was > 100 µM. For the same molecule, the TGI (UO-31 renal) was > 100 µM, the GI50 (MCF7 breast) was > 100 µM and the TGI (MCF7 breast) was > 100 µM. For the same molecule, the GI50 (SF-295 CNS) was > 100 µM, the TGI (SF-295 CNS) was > 100 µM and the GI50 (CCRF-CEM leukemia) was > 100 µM. For the same molecule, the TGI (CCRF-CEM leukemia) was > 100 µM, the GI50 (LOX IMVI melanoma) was > 100 µM and the TGI (LOX IMVI melanoma) was > 100 µM. For the same molecule, the GI50 (MOLT-4 leukemia) was > 100 µM, the TGI (MOLT-4 leukemia) was > 100 µM and the GI50 (MALME-3M melanoma) was > 100 µM. The TGI (MALME-3M melanoma) was > 100 µM, the GI50 (RPMI-8226 leukemia) was > 100 µM and the TGI (RPMI-8226 leukemia) was > 100 µM. For the same molecule, the GI50 (HOP-62 NSCLC) was > 100 µM, the TGI (HOP-62 NSCLC) was > 100 µM and the GI50 (OVCAR-3 ovarian) was > 100 µM. For the same molecule, the TGI (OVCAR-3 ovarian) was > 100 µM, the GI50 (OVCAR-4 ovarian) was > 100 µM and the TGI (OVCAR-4 ovarian) was > 100 µM. For the same molecule, the GI50 (SF-268 CNS) was > 100 µM, the TGI (SF-268 CNS) was > 100 µM and the GI50 (SK-MEL-2 melanoma) was > 100 µM. The TGI (SK-MEL-2 melanoma) was > 100 µM, the GI50 (SK-MEL-28 melanoma) was > 100 µM and the TGI (SK-MEL-28 melanoma) was > 100 µM. The GI50 (HOP-92 NSCLC) was 48.1 µM, the TGI (HOP-92 NSCLC) was > 100 µM and the GI50 (SN12C renal) was > 100 µM. The TGI (SN12C renal) was > 100 µM, the GI50 (SK-OV-3 ovarian) was > 100 µM and the TGI (SK-OV-3 ovarian) was > 100 µM. The GI50 (KM12 colon) was > 100 µM, the TGI (KM12 colon) was > 100 µM and the GI50 (NCI-H23 lung) was > 100 µM. For the same molecule, the TGI (NCI-H23 lung) was > 100 µM, the GI50 (OVCAR-8 ovarian) was 85.2 µM and the TGI (OVCAR-8 ovarian) was > 100 µM. For the same molecule, the GI50 (HCT-15 colon) was > 100 µM, the TGI (HCT-15 colon) was > 100 µM and the GI50 (HCT-116 colon) was > 100 µM. For the same molecule, the TGI (HCT-116 colon) was > 100 µM, the GI50 (COLO 205 colon) was > 100 µM and the TGI (COLO 205 colon) was > 100 µM. For the same molecule, the GI50 (NCI/ADR-RES ovarian) was > 100 µM, the TGI (NCI/ADR-RES ovarian) was > 100 µM and the GI50 (IGROV1 ovarian) was > 100 µM. The TGI (IGROV1 ovarian) was > 100 µM, the GI50 (A549 NSCLC) was > 100 µM and the TGI (A549 NSCLC) was > 100 µM. The GI50 (U251 CNS) was > 100 µM, the TGI (U251 CNS) was > 100 µM and the GI50 (K-562 leukemia) was > 100 µM. For the same molecule, the TGI (K-562 leukemia) was > 100 µM, the GI50 (SNB-75 CNS) was > 100 µM and the TGI (SNB-75 CNS) was > 100 µM. The GI50 (MDA-MB-231 breast) was > 100 µM, the TGI (MDA-MB-231 breast) was > 100 µM and the GI50 (UACC-62 melanoma) was > 100 µM. The TGI (UACC-62 melanoma) was > 100 µM, the GI50 (SW-620 colon) was > 100 µM and the TGI (SW-620 colon) was > 100 µM. For the same molecule, the GI50 (SR leukemia) was > 100 µM and the TGI (SR leukemia) was > 100 µM.
